Reference: patent US8906909B2 (Curis, Inc., priority 2009, dated 2014)

How the values were obtained:
[1] = system: HDACs (HeLa cell nuclear extracts); experiment: HDAC enzymatic activity, Biomol Color de Lys system; format: biochemical
How it was run: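 IC50 from sigmoidal dose-response fits of fluorescence (Ex 350–380, Em 440–460 nm). Compounds in DMSO dilution series incubated 1 h at 25 °C with HeLa nuclear extract HDACs and colorimetric substrate, pH 8.0 Tris/Cl buffer with NaCl, KCl, MgCl2, before developer termination.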

PI3Kα (p110α/p85α) = biological target: T1, PI3Kα (p110α/p85α) (Homo sapiens, UniProt P42336); experiment: PI3Kα fluorescence polarization assay; format: biochemical; conditions: 10 μM ATP
T1 construct: N-terminal histidine-tagged recombinant full-length human p110α; His tag (N); made in house; host or cells: Baculovirus-infected Sf9 insect cells
T1 sequence (P42336 whole entry): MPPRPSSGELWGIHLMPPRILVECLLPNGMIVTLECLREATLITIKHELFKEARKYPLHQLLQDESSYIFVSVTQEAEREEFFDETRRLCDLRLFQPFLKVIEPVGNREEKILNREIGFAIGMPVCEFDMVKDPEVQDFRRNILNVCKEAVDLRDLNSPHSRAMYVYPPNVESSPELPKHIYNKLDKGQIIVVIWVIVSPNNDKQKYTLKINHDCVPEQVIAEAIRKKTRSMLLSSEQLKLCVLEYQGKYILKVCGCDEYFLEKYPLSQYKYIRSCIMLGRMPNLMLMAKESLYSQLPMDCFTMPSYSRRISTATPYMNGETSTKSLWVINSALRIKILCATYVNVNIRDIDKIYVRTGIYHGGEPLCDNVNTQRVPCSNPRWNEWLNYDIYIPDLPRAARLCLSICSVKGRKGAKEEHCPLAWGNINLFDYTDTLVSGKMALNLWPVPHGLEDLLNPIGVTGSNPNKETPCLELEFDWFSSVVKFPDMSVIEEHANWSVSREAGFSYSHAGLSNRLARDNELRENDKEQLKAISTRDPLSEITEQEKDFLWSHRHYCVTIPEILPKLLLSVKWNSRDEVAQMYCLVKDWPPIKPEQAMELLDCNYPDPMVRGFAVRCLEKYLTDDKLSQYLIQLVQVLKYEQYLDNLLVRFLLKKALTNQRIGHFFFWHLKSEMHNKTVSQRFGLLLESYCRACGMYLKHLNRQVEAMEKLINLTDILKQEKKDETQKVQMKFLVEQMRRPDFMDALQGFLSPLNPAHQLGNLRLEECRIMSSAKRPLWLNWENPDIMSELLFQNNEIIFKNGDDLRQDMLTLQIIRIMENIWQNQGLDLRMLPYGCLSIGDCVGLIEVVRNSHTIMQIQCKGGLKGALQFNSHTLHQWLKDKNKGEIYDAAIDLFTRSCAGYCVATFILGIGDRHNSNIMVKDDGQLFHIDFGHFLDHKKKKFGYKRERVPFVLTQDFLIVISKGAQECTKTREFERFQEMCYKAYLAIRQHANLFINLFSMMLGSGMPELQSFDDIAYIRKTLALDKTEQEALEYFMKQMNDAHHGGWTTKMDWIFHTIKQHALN
T1 sequence (P27986 whole entry partner): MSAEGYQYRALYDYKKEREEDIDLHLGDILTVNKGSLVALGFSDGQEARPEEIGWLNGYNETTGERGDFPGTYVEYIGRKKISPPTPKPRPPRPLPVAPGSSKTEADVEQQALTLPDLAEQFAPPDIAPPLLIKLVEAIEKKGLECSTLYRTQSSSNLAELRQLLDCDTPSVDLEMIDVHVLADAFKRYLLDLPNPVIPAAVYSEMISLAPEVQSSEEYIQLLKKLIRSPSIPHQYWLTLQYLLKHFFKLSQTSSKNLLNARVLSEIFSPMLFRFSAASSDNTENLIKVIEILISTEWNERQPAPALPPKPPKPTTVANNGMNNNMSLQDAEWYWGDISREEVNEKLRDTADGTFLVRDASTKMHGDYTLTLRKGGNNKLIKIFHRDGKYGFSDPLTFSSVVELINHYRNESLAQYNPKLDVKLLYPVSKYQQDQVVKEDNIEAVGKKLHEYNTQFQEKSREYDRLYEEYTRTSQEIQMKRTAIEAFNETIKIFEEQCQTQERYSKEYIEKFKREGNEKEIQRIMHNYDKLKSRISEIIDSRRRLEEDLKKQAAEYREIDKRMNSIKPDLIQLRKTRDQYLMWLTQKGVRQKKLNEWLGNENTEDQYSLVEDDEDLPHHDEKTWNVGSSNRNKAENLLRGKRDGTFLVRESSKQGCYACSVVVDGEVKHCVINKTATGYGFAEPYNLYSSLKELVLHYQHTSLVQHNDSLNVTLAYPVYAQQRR
Procedure: (a) An In Vitro Assay which Determines the Ability of a Test Compound to Inhibit PI3Kα.
Activity of PI3Kα was measured using fluorescence polarization assay. PI3Kα, a complex of N-terminal histidine-tagged recombinant full-length human p110α and untagged recombinant full length human p85α were coexpressed in a Baculovirus infected Sf9 cell expression system. (GenBank Accession No. for p110α, U79143; for p85α, XM—043865). The proteins are purified by one-step affinity chromatography using glutathione-agarose. A competition assay was performed to measure the amount of PIP3 generated from PIP2 in the presence of purified recombinant PI3Kα (p110α/p85α). PI3K a was incubated with 10 μM PIP2 substrate in the reaction buffer (20 mM HEPES, pH 7.5, 10 mM NaCl, 4 mM MgCl2, 2 mM DTT, 10 μM ATP and 1% DMSO) for 1 hour at 30° C. The reaction product was then mixed with a PIP3 detector protein and the fluorescent PIP3 probe. Polarization (mP) values decrease as fluorescent probe binding to the PIP3 detector is displaced by PIP3 produced by enzymatic activity and the amount of unbound fluorescent probe in the mixture increases. Polarization degrees (mP) value was determined using microplate reader with background subtraction.

ZR-75-1 cells = experiment: Cell proliferation assay Method B, ZR-75-1; format: cell-based; conditions: Homo sapiens, Breast, 72 hours, read-out: antiproliferative activity IC50, ZR-75-1
Procedure: (§1) Cancer cell lines were plated at 5,000 to 10,000 per well in 96-well flat bottomed plates with various concentration of compounds. The cells were incubated with compounds for 72 hours in the presence of 0.5% of fetal bovine serum. Growth inhibition was accessed by adenosine triphosphate (ATP) content assay using Promega CellTiter-Glo kit. Promega CellTiter-Glo kit is an ATP monitoring system based on firefly luciferase. Briefly, 16 μl of mammalian cell lysis and substrate solution was added to 84 μl of culture medium per well to lyse the cells and stabilize the ATP. The mixture was shaken and incubated for 30 minutes and subsequently the luminescence was measured.

MDA-MB-361 cells = experiment: Cell proliferation assay Method B, MDA-MB-361; format: cell-based; conditions: Homo sapiens, Breast, 72 hours, read-out: antiproliferative activity IC50, MDA-MB-361
Procedure: as §1

SKBr3 cells = experiment: Cell proliferation assay Method B, SKBr3; format: cell-based; conditions: Homo sapiens, SK-BR-3, Breast, 72 hours, read-out: antiproliferative activity IC50, SKBr3
Procedure: as §1

HCC1500 cells = experiment: Cell proliferation assay Method B, HCC1500; format: cell-based; conditions: Breast, 72 hours, read-out: antiproliferative activity IC50, HCC1500
Procedure: as §1

MCF-7 cells = experiment: Cell proliferation assay Method B, MCF-7; format: cell-based; conditions: Homo sapiens, MCF7, Breast, 72 hours, read-out: antiproliferative activity IC50, MCF-7
Procedure: as §1

HCC1806 cells = experiment: Cell proliferation assay Method B, HCC1806; format: cell-based; conditions: Homo sapiens, Breast, 72 hours, read-out: antiproliferative activity IC50, HCC1806
Procedure: as §1

T47D cells = experiment: Cell proliferation assay Method B, T47D; format: cell-based; conditions: Homo sapiens, Breast, 72 hours, read-out: antiproliferative activity IC50, T47D
Procedure: as §1

BT474 cells = experiment: Cell proliferation assay Method B, BT474; format: cell-based; conditions: Homo sapiens, BT-474; Breast; Method B; 72 hours; read-out: antiproliferative activity IC50, BT474
Procedure: as §1

MV-4-11 cells = experiment: Cell proliferation assay Method B, MV-4-11; format: cell-based; conditions: Homo sapiens, MV4-11, AML, 72 hours, read-out: antiproliferative activity IC50, MV-4-11
Procedure: as §1

P388 D1 cells = experiment: Cell proliferation assay Method B, P388 D1; format: cell-based; conditions: P388D1, Mouse Lymphoma, 72 hours, read-out: antiproliferative activity IC50, P388 D1
Procedure: as §1

THP-1 cells = experiment: Cell proliferation assay Method B, THP-1; format: cell-based; conditions: Homo sapiens, AML, 72 hours, read-out: antiproliferative activity IC50, THP-1
Procedure: as §1

L1210 cells = experiment: Cell proliferation assay Method B, L1210; format: cell-based; conditions: Mouse LL, 72 hours, read-out: antiproliferative activity IC50, L1210
Procedure: as §1

ARH77 cells = experiment: Cell proliferation assay Method B, ARH77; format: cell-based; conditions: Homo sapiens, ARH-77, Multiple Myeloma, 72 hours, read-out: antiproliferative activity IC50, ARH77
Procedure: as §1

Raji cells = experiment: Cell proliferation assay Method B, Raji; format: cell-based; conditions: Homo sapiens, NHL, 72 hours, read-out: antiproliferative activity IC50, Raji
Procedure: as §1

HL-60 cells = experiment: Cell proliferation assay Method B, HL-60; format: cell-based; conditions: Homo sapiens, AML, 72 hours, read-out: antiproliferative activity IC50, HL-60
Procedure: as §1

Daudi cells = experiment: Cell proliferation assay Method B, Daudi; format: cell-based; conditions: Homo sapiens, NHL, 72 hours, read-out: antiproliferative activity IC50, Daudi
Procedure: as §1

Pfeiffer cells = experiment: Cell proliferation assay Method B, Pfeiffer; format: cell-based; conditions: Homo sapiens, NHL, 72 hours, read-out: antiproliferative activity IC50, Pfeiffer
Procedure: as §1

MOLT-4 cells = experiment: Cell proliferation assay Method B, MOLT-4; format: cell-based; conditions: Homo sapiens, ALL, 72 hours, read-out: antiproliferative activity IC50, MOLT-4
Procedure: as §1

K562 cells = experiment: Cell proliferation assay Method B, K562; format: cell-based; conditions: Homo sapiens, CML, 72 hours, read-out: antiproliferative activity IC50, K562
Procedure: as §1

MDA-MB-453 cells = experiment: Cell proliferation assay Method B, MDA-MB-453; format: cell-based; conditions: Homo sapiens, Breast, 72 hours, read-out: antiproliferative activity IC50, MDA-MB-453
Procedure: as §1

U937 cells = experiment: Cell proliferation assay Method B, U937; format: cell-based; conditions: Homo sapiens, U-937, AML, 72 hours, read-out: antiproliferative activity IC50, U937
Procedure: as §1

RPMI-8226 cells = experiment: Cell proliferation assay Method B, RPMI-8226; format: cell-based; conditions: Homo sapiens, Multiple Myeloma, Method B, 72 hours, read-out: antiproliferative activity IC50, RPMI-8226
Procedure: as §1

MEG-01 cells = experiment: Cell proliferation assay Method B, MEG-01; format: cell-based; conditions: Homo sapiens, CML, 72 hours, read-out: antiproliferative activity IC50, MEG-01
Procedure: as §1

UACC-893 cells = experiment: Cell proliferation assay Method B, UACC-893; format: cell-based; conditions: Homo sapiens, Breast, 72 hours, read-out: antiproliferative activity IC50, UACC-893
Procedure: as §1

MDA-MB-231 cells = experiment: Cell proliferation assay Method B, MDA-MB-231; format: cell-based; conditions: Homo sapiens, Breast, Method B, 72 hours, read-out: antiproliferative activity IC50, MDA-MB-231 (second listing, r32)
Procedure: as §1

SUP-B15 cells = experiment: Cell proliferation assay Method B, SUP-B15; format: cell-based; conditions: Homo sapiens, ALL, 72 hours, read-out: antiproliferative activity IC50, SUP-B15
Procedure: as §1

MDA-MB-468 cells = experiment: Cell proliferation assay Method B, MDA-MB-468; format: cell-based; conditions: Homo sapiens, Breast, Method B, 72 hours, read-out: antiproliferative activity IC50, MDA-MB-468
Procedure: as §1

| melting point [°C] | IC50 [1] [nM] | IC50 (PI3Kα (p110α/p85α)) [nM] | IC50 (MDA-MB-361 cells) [nM] | IC50 (SKBr3 cells) [nM] | IC50 (MCF-7 cells) [nM] | IC50 (HCC1806 cells) [nM] | IC50 (T47D cells) [nM] | IC50 (BT474 cells) [nM] | Compound | IC50 (ZR-75-1 cells) [nM] | IC50 (HCC1500 cells) [nM] | IC50 (MV-4-11 cells) [nM] | IC50 (P388 D1 cells) [nM] | IC50 (THP-1 cells) [nM] | IC50 (L1210 cells) [nM] | IC50 (ARH77 cells) [nM] | IC50 (Raji cells) [nM] | IC50 (HL-60 cells) [nM] | IC50 (Daudi cells) [nM] | IC50 (Pfeiffer cells) [nM] | other results |
| --- | --- | --- | --- | --- | --- | --- | --- | --- | --- | --- | --- | --- | --- | --- | --- | --- | --- | --- | --- | --- | --- |
| 139 to 143 | < 100 | > 10000 | – | – | – | – | – | – | CS(=O)(=O)N1CCN(Cc2cc3nc(-c4cccc5c4cnn5CCCCC(=O)NO)nc(N4CCOCC4)c3s2)CC1 [Compound 3, N-hydroxy-5-(4-(6-((4-(methylsulfonyl)piperazin-1-yl)methyl)-4-morpholinothieno[3,2-d]pyrimidin-2-yl)-1H-indazol-1-yl)pentanamide] | – | – | – | – | – | – | – | – | – | – | – | – |
| 215 to 220 | < 100 | – | < 10 | 10 to 100 | < 10 | < 10 | < 10 | < 10 | COc1ncc(-c2nc(N3CCOCC3)c3sc(CN(C)c4ncc(C(=O)NO)cn4)cc3n2)cn1 [Compound 261, N-Hydroxy-2-(((2-(2-methoxypyrimidin-5-yl)-4-morpholinothieno[3,2-d]pyrimidin-6-yl)methyl)(methyl)amino)pyrimidine-5-carboxamide] | < 10 | < 10 | – | – | – | – | – | – | – | – | – | – |
| – | < 100 | – | < 10 | 10 to 100 | < 10 | 10 to 100 | < 10 | < 10 | CNc1ccc(-c2nc(N3CCOCC3)c3sc(CN(C)c4ncc(C(=O)NO)cn4)cc3n2)cn1 [Compound 111, N-Hydroxy-2-(methyl((2-(6-(methylamino)pyridin-3-yl)-4-morpholinothieno[3,2-d]pyrimidin-6-yl)methyl)amino)pyrimidine-5-carboxamide] | 10 to 100 | – | < 10 | < 10 | 10 to 100 | < 10 | < 10 | 10 to 100 | < 10 | < 10 | < 10 | IC50 (MOLT-4 cells): < 10 nM; IC50 (K562 cells): 10 to 100 nM; IC50 (MDA-MB-453 cells): < 10 nM; IC50 (U937 cells): < 10 nM; IC50 (RPMI-8226 cells): < 10 nM |
| 186 to 187 | < 100 | > 10000 | – | – | – | – | – | – | CS(=O)(=O)N1CCN(Cc2cc3nc(-c4cccc5c4cnn5CCCCCC(=O)NO)nc(N4CCOCC4)c3s2)CC1 [Compound 4] | – | – | – | – | – | – | – | – | – | – | – | – |

| Compound | melting point [°C] | IC50 [1] [nM] | IC50 (PI3Kα (p110α/p85α)) [nM] | IC50 (MDA-MB-361 cells) [nM] | IC50 (SKBr3 cells) [nM] | IC50 (MCF-7 cells) [nM] | IC50 (HCC1806 cells) [nM] | IC50 (T47D cells) [nM] | IC50 (BT474 cells) [nM] | IC50 (ZR-75-1 cells) [nM] | IC50 (HCC1500 cells) [nM] | IC50 (MV-4-11 cells) [nM] | IC50 (P388 D1 cells) [nM] | IC50 (THP-1 cells) [nM] | IC50 (L1210 cells) [nM] | IC50 (ARH77 cells) [nM] | IC50 (Raji cells) [nM] | IC50 (HL-60 cells) [nM] | IC50 (Daudi cells) [nM] | IC50 (Pfeiffer cells) [nM] | other results |
| --- | --- | --- | --- | --- | --- | --- | --- | --- | --- | --- | --- | --- | --- | --- | --- | --- | --- | --- | --- | --- | --- |
| COc1ccc(-c2nc(N3CCOCC3)c3sc(CN(C)c4ncc(C(=O)NO)cn4)cc3n2)cn1 [Compound 236, N-Hydroxy-2-(((2-(6-methoxypyridin-3-yl)-4-morpholinothieno[3,2-d]pyrimidin-6-yl)methyl)(methyl)amino)pyrimidine-5-carboxamide] | – | < 100 | – | < 10 | 10 to 100 | < 10 | 10 to 100 | 10 to 100 | < 10 | 10 to 100 | < 10 | < 10 | 10 to 100 | 10 to 100 | 10 to 100 | 10 to 100 | 10 to 100 | < 10 | 10 to 100 | < 10 | IC50 (MEG-01 cells): 10 to 100 nM; IC50 (UACC-893 cells): 10 to 100 nM; IC50 (MDA-MB-231 cells): 10 to 100 nM; IC50 (SUP-B15 cells): < 10 nM; IC50 (MOLT-4 cells): < 10 nM; IC50 (K562 cells): 100 to 1000 nM; IC50 (MDA-MB-453 cells): < 10 nM; IC50 (MDA-MB-468 cells): 10 to 100 nM; IC50 (U937 cells): < 10 nM; IC50 (RPMI-8226 cells): < 10 nM |
